{
  "source": "paper PMC6285983",
  "about": "“Novel broad spectrum virucidal molecules against enveloped viruses” (PLoS ONE, 2018)",
  "key": {"[1]": {"tested_on": "HSV-2", "assay": "HSV-2 plaquing efficiency assay, compound preincubated with virus 1 h at 37°C", "format": "cell-based", "settings": "Human alphaherpesvirus 2, HSV-2, Vero cells, 1 h pre-incubation virus/compound"}, "[2]": {"tested_on": "HSV-2 acyclovir resistant strain", "assay": "microbe, parasite or virus in culture", "format": "cell-based"}, "[3]": {"tested_on": "HSV-1", "assay": "HSV-1 plaquing efficiency assay", "format": "cell-based"}, "[4]": {"tested_on": "HCMV", "assay": "HCMV inhibition assay on HELF cells", "format": "cell-based, HCMV strain Towne", "settings": "Human betaherpesvirus 5, HELF", "experimental": "HELF cells were pre-plated in a 96-well plate. […] After five days incubation, cells were observed under an inverted Zeiss LSM510 fluorescence microscope (Zeiss, Oberkochen, Germany) and the percentages of infection were calculated by comparing GFP positive cells in treated and untreated wells."}, "[5]": {"tested_on": "RSV", "assay": "RSV inhibition assay on Hep-2 cells", "format": "cell-based, RSV strain A2", "settings": "human respiratory syncytial virus", "experimental": "HeP-2 cells were pre-plated in a 96-well plate. […] 72 h later cells were fixed and subjected to specific immunostaining using an RSV monoclonal antibody (Ab35958; Abcam, Cambridge, United Kingdom) in order to visualize syncytia."}, "[6]": {"tested_on": "HPV-16", "assay": "HPV-16 inhibition assay on HeLa cells", "format": "cell-based, HPV-16 pseudovirions", "experimental": "(§1) HeLa cells were plated in 96-well plates. […] The GFP-expressing infected cells were observed under an inverted Zeiss LSM510 fluorescence microscope (Zeiss, Oberkochen, Germany) and the percentages of infection were calculated by comparing GFP positive cells in treated and untreated wells."}, "[7]": {"tested_on": "HRoV", "assay": "HRoV inhibition assay on MA104 cells", "format": "cell-based, Human rotavirus strain Wa", "experimental": "MA104 cell were plated in 96-well trays. The following day virus infectivity was activated by adding 5 μg porcine trypsin (Sigma)/mL for 30 min at 37°C. […] After 16 h, cells were fixed with cold acetone–methanol and viral titers were determined by indirect immunostaining using the monoclonal antibody mab-0036 (specific for human 41 kDa inner capsid protein–VP6 –of rotavirus) purchased from Covalab (Villeurbanne, France) and the UltraTech HRP Streptavidin-Biotin Detection System (Beckman Colter)."}, "[8]": {"assay": "Cell viability MTS assay, conditions of the RSV assay", "format": "cell-based", "settings": "human, Hep-2 cells", "experimental": "(§2) Cell viability was measured using the MTS [3- (4,5-dimethylthiazol-2-yl)-5- (3 carboxy methoxy phenyl)-2-(4-sulfophenyl)-2H-tetrazolium] assay. Cell cultures were seeded in 96-well plates and were incubated with different concentrations of compounds in duplicate under the same experimental conditions described for the antiviral assays, (i.e. if the incubation time of the compound on cells was carried for 2 hours and then the evaluation of the antiviral activity was done 72h later, the same timing was used for the cytotoxicity assays, in order to exclude any toxicity effect in the antiviral evaluation). Cell viability was determined using the CellTiter 96 Proliferation Assay Kit (Promega, Madison, WI, USA) according to the manufacturer's instructions. Absorbances were measured using a Microplate Reader (Model 680, BIORAD) at 490 nm. The effect on cell viability at different concentrations of the compound was expressed as a percentage, by comparing absorbances of treated cells with those of cells incubated with culture medium and equal volumes of vehicle. The 50% cytotoxic concentrations (CC50) and 95% confidence intervals (CIs) were determined using Prism software (Graph-Pad Software, San Diego, CA). For compound 9d a continuous incubation of 1, 2, 3 and 4 days on Vero cells was carried in order to evaluate the toxicity after long exposure the results are shown in S1 Fig and Fig 3. […]"}, "[9]": {"assay": "Cell viability MTS assay, conditions of the HPV-16 and Ad5 assays", "format": "cell-based", "settings": "human, HeLa cells; conditions of HPV-16 assay", "experimental": "as §2, with “vehicle.” for “vehicle. The 50% cytotoxic concentrations (CC50) and 95% confidence intervals (CIs) were determined using Prism software (Graph-Pad Software, San Diego, CA). For compound 9d a continuous incubation of 1, 2, 3 and 4 days on Vero cells was carried in order to evaluate the toxicity after long exposure the results are shown in S1 Fig and Fig 3.”\nas §1"}, "[10]": {"assay": "Cell viability MTS assay, conditions of the HRoV assay", "format": "cell-based", "settings": "African green monkey, MA104 cells", "experimental": "as §2"}, "[11]": {"tested_on": "HSV-2", "assay": "Time of addition: pretreatment of cells before HSV-2 infection", "format": "cell-based", "settings": "compound on cells 2 h before infection, then removed", "experimental": "We performed assays aimed at better understanding the mechanism of action. In the pretreatment assay compound 9d was added on cells before the virus in order to determine if the antiviral activity was due to an interaction with the cells. Moreover, an assay was conducted adding virus and compound on cells without the preincubation performed in previous assays.\nFig 4 Time of addition assays. Compound 9d was added on cells 2 h before infection (PRE-TREATMENT CELLS) and subsequently the inocula were removed and cells were infected or compound and virus were added simultaneously on cells (DURING INFECTION) or after 1 h pre-incubation between the virus and the compound (PRE-TREATMENT VIRUS). Cells were fixed and stained 24 h later and plaques were counted.\nPretreatment: cells were pretreated for 2 h at 37°C with increasing concentrations of compounds, the inocula were then removed, cells washed and HSV-2 was added on cells for 2 h at 37°C. Subsequently the same protocol described above was followed."}, "[12]": {"tested_on": "HSV-2", "assay": "Time of addition: during infection, no preincubation", "format": "cell-based", "settings": "Human alphaherpesvirus 2; during-infection assay, virus and compound added simultaneously"}, "[13]": {"tested_on": "HSV-2", "assay": "Virucidal assay", "format": "cell-based", "settings": "for viral infectivity: 10 μM of compound"}, "[14]": {"assay": "in vitro", "settings": "African green monkey"}, "[15]": {"assay": "Cell viability MTS assay on Vero cells", "settings": "African green monkey"}, "[16]": {"tested_on": "IAV H1N1", "assay": "IAV H1N1 inhibition assay on MDCK cells", "settings": "Influenza A virus", "description": "MDCK cells were pre-plated in 96-well plates. The following day, increasing concentrations of compounds were mixed with IAV (MOI 0.05) and incubated for 1 h at 37°C. The mixtures were subsequently added to the cells for 1 h at 37°C, after a washout cells were overlaid with medium for 16 h at 37°C. Cells were then fixed and subjected to specific immunostaining using a Flu A monoclonal antibody (Merck 5001) in order to visualize infected cells. Percentages of infection were calculated by comparing numbers of infected cells in treated and untreated wells."}},
  "data": [
    {"compound": "CC(C)c1ccc(CCN2C(=O)/C(=C/c3ccc(-c4ccc(C(=O)O)c(O)c4)o3)SC2=S)cc1", "note": "[Compound 9d, (Z)-2-hydroxy-4-(5-((3-(4-isopropylphenethyl)-4-oxo-2-thioxothiazolidin-5-ylidene)methyl)furan-2-yl)benzoic acid]", "values": [
      {"measurement": "EC50", "setting": "[1]; plaques at 24 h, read-out: EC50 (95% C.I.)", "result": 6.55, "unit": "nM"},
      {"measurement": "EC90", "setting": "[1]; read-out: EC90 (95% C.I.)", "result": 40, "unit": "nM"},
      {"measurement": "EC50", "setting": "[2]; Human alphaherpesvirus 2, read-out: EC50 (95% C.I.)", "result": 1.6, "unit": "nM"},
      {"measurement": "EC90", "setting": "[2]; Human alphaherpesvirus 2, read-out: EC90 (95% C.I.)", "result": 24.3, "unit": "nM"},
      {"measurement": "EC50", "setting": "[3]; Human alphaherpesvirus 1, read-out: EC50 (95% C.I.)", "result": 2.18, "unit": "nM"},
      {"measurement": "EC90", "setting": "[3]; Human alphaherpesvirus 1, read-out: EC90 (95% C.I.)", "result": 35.1, "unit": "nM"},
      {"measurement": "EC50", "setting": "[4]; read-out: EC50 (95% C.I.)", "result": 4.22, "unit": "nM"},
      {"measurement": "EC90", "setting": "[4]; read-out: EC90 (95% C.I.)", "result": 31.3, "unit": "nM"},
      {"measurement": "EC50", "setting": "[5]; read-out: EC50 (95% C.I.)", "result": 54.8, "unit": "nM"},
      {"measurement": "EC90", "setting": "[5]; read-out: EC90 (95% C.I.)", "result": 221, "unit": "nM"},
      {"measurement": "antiviral activity against non-enveloped virus", "setting": "[6]", "result": "inactive"},
      {"measurement": "antiviral activity against non-enveloped virus", "setting": "[7]", "result": "inactive"},
      {"measurement": "CC50 at 3 h", "setting": "[8]", "result": 17000, "unit": "nM"},
      {"measurement": "CC50 at 72 h", "setting": "[9]", "result": 94200, "unit": "nM"},
      {"measurement": "CC50 at 1 h", "setting": "[10]", "result": 156000, "unit": "nM"},
      {"measurement": "antiviral activity in pre-treatment assay", "setting": "[11]", "result": "not active"},
      {"measurement": "EC50", "setting": "[12]", "result": 147, "unit": "nM"},
      {"measurement": "viral infectivity", "setting": "[13]; 15' post treatment", "result": "decreased"},
      {"measurement": "viral infectivity", "setting": "[13]; from 30' on", "result": "completely abrogated"},
      {"measurement": "infectivity after dilution in drug free medium", "setting": "[13]; 1h incubation, then diluted for additional 1, 2, 3 or 4 hours", "result": "not regained"},
      {"measurement": "EC50", "setting": "[13]; Human alphaherpesvirus 2, virucidal assay, 1h of exposure, 10^5 pfu HSV-2", "result": 37.3, "unit": "nM"},
      {"measurement": "CC50", "setting": "[14]", "result": 24800, "unit": "nM"},
      {"measurement": "CC50", "setting": "[15]; CC50, Vero cells, MTS", "result": 2090, "unit": "nM"},
      {"measurement": "CC50 at 96 h", "setting": "[15]; CC50, Vero cells, after 96h exposure", "result": 2090, "unit": "nM"},
      {"measurement": "CC50", "setting": "[15]; CC50, conditions of HSV-1 assay", "result": 2090, "unit": "nM"},
      {"measurement": "CC50", "setting": "[15]; CC50, conditions of HSV-2 acyclovir resistant assay", "result": 2090, "unit": "nM"},
      {"measurement": "CC50", "setting": "[15]; CC50, conditions of ZIKAV assay", "result": 8850, "unit": "nM"},
      {"measurement": "EC50", "setting": "[16]; read-out: EC50 (95% C.I.)", "result": 66.1, "unit": "nM"},
      {"measurement": "EC90", "setting": "[16]; read-out: EC90 (95% C.I.)", "result": 301, "unit": "nM"}
    ]}
  ]
}
